According to US20110028447A1, “INDAZOLE DERIVATIVES” (Pfizer Inc., priority 2008, published 2011):
pEC50, pKi: −log10 of the molar value. Where two headings read alike, the source gives them in different places.

Assays:
[1] = target: T1, human CB1 receptor (Homo sapiens, UniProt P21554); assay: Human CB1 receptor binding, [3H] CP-55,940 displacement on HEK cell membranes; set-up: expressed in transfected cells; host or cells: HEK cells, doxycycline-induced; membrane preparation
How it was run: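 Membranes from doxycycline-induced HEK cells expressing human CB1 incubated 60 min at room temperature with [3H] CP-55,940 (final […]) in 50 mM Tris pH 7.4, 100 mM NaCl, 3 mM MgCl2, 0.2 mM EGTA, 0.04% BSA. Nonspecific binding defined with 50 μM WIN-55,212-2; filtration and scintillation counting gave EC50 and Ki.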

[2] = target: T1, human CB1 receptor; assay: [35S] GTPγS binding on membranes of CHO cells expressing the human CB1 receptor (agonism); assay type: biochemical; set-up: expressed in transfected cells; membrane preparation
How it was run: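 Membranes from human CB1-expressing CHO cells (5 μg/well) incubated with test compound and [35S]GTPγS in 50 mM Tris pH 7.4, 100 mM NaCl, 3 mM MgCl2, 0.2 mM EGTA, 0.04% BSA for 45 min at 37 °C. Bound label collected by filtration, scintillation counted; EC50 from curve fits.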

[3] = GTPγS EC50, human CB1, CHO cell membranes
[4] = human CB1, CHO cell membranes, read-out: GTPγS EC50

T1 sequence (P21554 whole entry): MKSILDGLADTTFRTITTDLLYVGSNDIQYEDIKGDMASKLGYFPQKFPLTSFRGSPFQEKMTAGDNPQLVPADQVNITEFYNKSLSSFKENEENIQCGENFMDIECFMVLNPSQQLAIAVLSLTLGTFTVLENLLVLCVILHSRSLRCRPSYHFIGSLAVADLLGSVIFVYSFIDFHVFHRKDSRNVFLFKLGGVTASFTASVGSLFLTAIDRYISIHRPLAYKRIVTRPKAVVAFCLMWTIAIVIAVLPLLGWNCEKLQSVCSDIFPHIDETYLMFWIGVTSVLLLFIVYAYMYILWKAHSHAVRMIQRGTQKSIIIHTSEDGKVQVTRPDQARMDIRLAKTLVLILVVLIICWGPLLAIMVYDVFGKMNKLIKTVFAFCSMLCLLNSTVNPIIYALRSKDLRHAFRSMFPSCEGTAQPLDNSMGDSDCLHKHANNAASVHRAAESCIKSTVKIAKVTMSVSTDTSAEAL

| Structure (SMILES) | pKi ([1]; CB1 Ki) | pEC50 [2, 3] | pKi ([1]; read-out: CB1 Ki) | pEC50 [2, 4] |
| --- | --- | --- | --- | --- |
| Cc1cc2c(C(=O)N[C@H](C(=O)NCCS(N)(=O)=O)C(C)(C)C)nn(Cc3ccc(F)cc3)c2cc1F [Example 512] | 8.08 | 7.50 |  |  |
| CC(C)(C)[C@H](NC(=O)c1nn(Cc2ccc(F)cc2)c2ccccc12)C(=O)Nc1cnoc1 [Example 513] | 8.64 | 7.86 |  |  |
| Cc1cc(NC(=O)[C@@H](NC(=O)c2nn(Cc3ccc(F)cc3)c3ccccc23)C(C)(C)C)sn1 [Example 514] | 8.52 | 7.48 |  |  |
| CC(C)(C)[C@H](NC(=O)c1nn(Cc2ccc(F)cc2)c2ccccc12)C(=O)NC[C@@H](O)[C@H](O)CO [Example 516] | 8.37 | 7.35 |  |  |
| CC(C)(C)[C@H](NC(=O)c1nn(Cc2ccc(F)cc2)c2ccccc12)C(=O)NC[C@H](O)[C@@H](O)CO [Example 517] | 7.80 | 6.95 |  |  |
| CC(C)(C)[C@H](NC(=O)c1nn(Cc2ccc(F)cc2)c2ccccc12)C(=O)NCC(=O)Nc1cnoc1 [Example 518] |  |  | 8.74 | 7.87 |
| CC(C)(C)[C@H](NC(=O)c1nn(Cc2ccc(F)cc2)c2ccccc12)C(=O)NCC(=O)Nc1nncs1 [Example 519] |  |  | 9.02 | 8.24 |
| CC(C)(C)[C@H](NC(=O)c1nn(Cc2ccc(F)cc2)c2ccccc12)C(=O)NCC(=O)Nc1ccccn1 [Example 520] |  |  | 8.73 | 8.00 |
| CC(C)(C)[C@H](NC(=O)c1nn(Cc2ccc(F)cc2)c2ccccc12)C(=O)NCC(=O)NC[C@@H](O)CO [Example 523] |  |  | 8.28 | 8.55 |
